Holding throughout (type): biochemical
In one test the target is T1, recombinant human MMP-12 (Homo sapiens, UniProt P39900).
T1 construct: purchased R&D Systems 917-MP
Briefly: Competitive fluorogenic enzyme activity assay, MMP-12. The conditions noted are these: for IC50: fluorogenic substrate 5 μM, 5 nM enzyme, 30 min, read-out: IC50 toward MMP-12. The method, then:
Determination of the IC50 toward human MMP-2, MMP-9, MMP-12 and MMP-13 was performed by a competitive enzyme activity assay according to a literature procedure. […] The increase in fluorescence over time was measured using a SpectraMax M2e microplate reader (Molecular Devices Inc., CA, USA) with an excitation wavelength of 325 nm and an emission wavelength of 395 nm. The fluorescence intensity after 30 min was plotted as a function of the concentration of each of the compounds on a logarithmic scale to produce an inhibition curve that was subsequently fit with a sigmoidal function by a least squares method. The IC50 values were calculated from the inhibition curves using GraphPad Prism 6 (GraphPad Software, Inc., CA, USA).

The target in a further test is T2, recombinant human MMP-9 (Homo sapiens, UniProt P14780).
T2 construct: purchased R&D Systems 911-MP
T2 sequence (P14780 94-707): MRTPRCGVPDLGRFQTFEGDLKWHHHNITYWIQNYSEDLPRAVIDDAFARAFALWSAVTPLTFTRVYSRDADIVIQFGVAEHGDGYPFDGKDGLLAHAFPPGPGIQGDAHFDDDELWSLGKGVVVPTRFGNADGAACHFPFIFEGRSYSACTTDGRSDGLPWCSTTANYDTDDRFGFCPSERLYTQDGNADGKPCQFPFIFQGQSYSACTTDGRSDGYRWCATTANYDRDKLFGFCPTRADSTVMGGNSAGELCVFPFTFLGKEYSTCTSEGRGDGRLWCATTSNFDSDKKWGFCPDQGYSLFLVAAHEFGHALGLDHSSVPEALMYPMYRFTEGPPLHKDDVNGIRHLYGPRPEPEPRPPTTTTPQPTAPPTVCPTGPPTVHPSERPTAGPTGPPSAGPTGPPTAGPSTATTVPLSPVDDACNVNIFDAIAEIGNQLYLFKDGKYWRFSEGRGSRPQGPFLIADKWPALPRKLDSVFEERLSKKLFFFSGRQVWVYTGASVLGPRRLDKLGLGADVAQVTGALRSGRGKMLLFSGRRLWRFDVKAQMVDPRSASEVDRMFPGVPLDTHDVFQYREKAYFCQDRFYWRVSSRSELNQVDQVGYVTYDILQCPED
Briefly: Competitive fluorogenic enzyme activity assay, MMP-9. The conditions noted are these: fluorogenic substrate 5 μM, 5 nM enzyme, 30 min; read-out: IC50 toward MMP-9. The method, then:
(§1) Determination of the IC50 toward human MMP-2, MMP-9, MMP-12 and MMP-13 was performed by a competitive enzyme activity assay according to a literature procedure. The assay was performed by incubating 5 μM of the synthesized fluorogenic peptide substrate Mca-Pro-Leu-Gly-Leu-Dpa(Dnp)-Ala-Arg-NH2 with 5 nM recombinant human MMP-2 (AS72005, Anaspec Inc., CA, USA), MMP-9 (911-MP, R&D Systems, MN, USA), MMP-12 (917-MP, R&D Systems) and MMP-13 (AS72011, Anaspec) along with various concentrations of ML5, I-ML5, PFB, PFP, IPFB, and IPFP (0.2–365 nM) in a buffer (pH 7.5, 50 mM tris(hydroxymethyl)aminomethane, 10 mM calcium chloride, 150 mM sodium chloride, and 0.01% Brij-35) containing 5% dimethyl sulfoxide. The increase in fluorescence over time was measured using a SpectraMax M2e microplate reader (Molecular Devices Inc., CA, USA) with an excitation wavelength of 325 nm and an emission wavelength of 395 nm. The fluorescence intensity after 30 min was plotted as a function of the concentration of each of the compounds on a logarithmic scale to produce an inhibition curve that was subsequently fit with a sigmoidal function by a least squares method. The IC50 values were calculated from the inhibition curves using GraphPad Prism 6 (GraphPad Software, Inc., CA, USA).

Another test deals with T3, recombinant human MMP-13 (Homo sapiens, UniProt P45452).
T3 construct: purchased Anaspec AS72011
Briefly: Competitive fluorogenic enzyme activity assay, MMP-13. To be noted: fluorogenic substrate 5 μM, 5 nM enzyme, 30 min; read-out: IC50 toward MMP-13. How it is done:
as §1

In the next test the target is T4, recombinant human MMP-2 (Homo sapiens, UniProt P08253).
T4 construct: purchased Anaspec Inc. AS72005
T4 sequence (P08253 110-660): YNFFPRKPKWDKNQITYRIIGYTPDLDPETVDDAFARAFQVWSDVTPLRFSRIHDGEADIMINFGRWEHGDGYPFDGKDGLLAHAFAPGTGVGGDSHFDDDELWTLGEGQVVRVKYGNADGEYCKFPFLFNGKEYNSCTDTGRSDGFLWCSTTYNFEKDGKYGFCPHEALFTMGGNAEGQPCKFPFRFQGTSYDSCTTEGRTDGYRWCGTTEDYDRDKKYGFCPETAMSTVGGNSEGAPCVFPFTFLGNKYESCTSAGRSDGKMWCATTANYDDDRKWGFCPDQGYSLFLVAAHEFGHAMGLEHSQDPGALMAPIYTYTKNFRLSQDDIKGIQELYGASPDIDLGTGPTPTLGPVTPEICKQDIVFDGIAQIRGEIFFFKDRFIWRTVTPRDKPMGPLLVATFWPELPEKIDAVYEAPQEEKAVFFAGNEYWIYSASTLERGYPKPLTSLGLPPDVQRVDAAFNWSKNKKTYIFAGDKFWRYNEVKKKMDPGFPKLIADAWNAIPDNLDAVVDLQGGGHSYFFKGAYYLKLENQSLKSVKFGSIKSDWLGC
In words: Competitive fluorogenic enzyme activity assay, MMP-2. To be noted: fluorogenic substrate 5 μM, 5 nM enzyme, 30 min; read-out: IC50 toward MMP-2. How it is done:
as §1

SMILES strings stand for the structures.

T1 sequence (P39900 106-470): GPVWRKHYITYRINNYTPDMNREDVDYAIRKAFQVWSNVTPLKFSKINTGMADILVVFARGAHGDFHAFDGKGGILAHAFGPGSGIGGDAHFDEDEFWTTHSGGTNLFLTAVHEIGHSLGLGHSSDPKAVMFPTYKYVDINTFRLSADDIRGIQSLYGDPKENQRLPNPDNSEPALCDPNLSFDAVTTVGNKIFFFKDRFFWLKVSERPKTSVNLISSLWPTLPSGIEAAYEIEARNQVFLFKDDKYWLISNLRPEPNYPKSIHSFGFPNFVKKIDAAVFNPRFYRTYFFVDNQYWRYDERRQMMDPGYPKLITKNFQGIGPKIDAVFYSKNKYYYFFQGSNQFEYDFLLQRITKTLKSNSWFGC

For the compound `CC(C)C[C@H](CC(=O)NO)C(=O)N[C@@H](Cc1ccc(I)cc1)C(=O)N[C@@H](CCCCN)C(N)=O` [I-ML5], the IC50 at recombinant human MMP-12 is 2.3 ± 1.1 nM; on recombinant human MMP-9, 13.8 ± 1.5 nM; on recombinant human MMP-13 it was 11.8 ± 6.3 nM; on recombinant human MMP-2, 3.7 ± 1 nM.

For `CC(C)C[C@H](CC(=O)NO)C(=O)N[C@@H](Cc1ccc(I)cc1)C(=O)N[C@@H](CCCCNC(=O)c1ccc(F)cc1)C(N)=O` [IPFB], the IC50 at recombinant human MMP-12 was determined as 12.3 ± 4 nM; on recombinant human MMP-9, 148 ± 30.6 nM; on recombinant human MMP-13 it was 44.5 ± 21.6 nM; on recombinant human MMP-2, 29.1 ± 9.3 nM.

In the case of `CC(C)C[C@H](CC(=O)NO)C(=O)N[C@@H](Cc1ccc(I)cc1)C(=O)N[C@@H](CCCCNC(=O)C(C)F)C(N)=O` (stereo partly drawn) [IPFP], on recombinant human MMP-12 (MMP-12 vs MMP-2), the “inverse IC50 ratio (selectivity toward MMP-12) relative to MMP-2” value is reported as 2.9. For the same compound, the “inverse IC50 ratio (selectivity toward MMP-12) relative to MMP-9” value on recombinant human MMP-12 (MMP-12 vs MMP-9) stood at 5.4. Further, the “inverse IC50 ratio (selectivity toward MMP-12) relative to MMP-13” value at recombinant human MMP-12 (MMP-12 vs MMP-13) was 2.7. The IC50 on recombinant human MMP-12 is 1.5 ± 0.8 nM; on recombinant human MMP-9, 8.1 ± 2 nM; at recombinant human MMP-13, 4.1 ± 1.7 nM; at recombinant human MMP-2, 4.4 ± 2.3 nM.

Consider `CC(C)C[C@H](CC(=O)NO)C(=O)N[C@@H](Cc1ccccc1)C(=O)N[C@@H](CCCCNC(=O)c1ccc(F)cc1)C(N)=O` [PFB], for which the 50% inhibitory concentration (IC50) was determined as 24.2 ± 14.1 nM on recombinant human MMP-12, 178 ± 24.2 nM on recombinant human MMP-9, 66.1 ± 26.1 nM at recombinant human MMP-13 and 77.7 ± 4 nM on recombinant human MMP-2.

For the compound `CC(C)C[C@H](CC(=O)NO)C(=O)N[C@@H](Cc1ccccc1)C(=O)N[C@@H](CCCCNC(=O)C(C)F)C(N)=O` (stereo partly drawn) [PFP], the concentration for half-maximal inhibition (IC50) on recombinant human MMP-12 is 4.5 ± 2.5 nM; at recombinant human MMP-9, 54.1 ± 38.3 nM; at recombinant human MMP-13, 11.1 ± 6.6 nM; at recombinant human MMP-2 it was 12.5 ± 7.1 nM.

With `CC(C)C[C@H](CC(=O)NO)C(=O)N[C@@H](Cc1ccc(I)cc1)C(=O)N[C@@H](CCCCNC(=O)C(C)F)C(N)=O` (stereo partly drawn) [^18F-IPFP], the IC50 at recombinant human MMP-12 is 1.5 nM.

The IC50 is the point on the concentration scale where inhibition reaches its midpoint.

(Values after PMC5778071, “Development of matrix metalloproteinase-targeted probes for lung inflammation detection with positron emission tomography” (Scientific Reports, 2018).)
